# Earlier results, collected in patent US20240398765A1, “TRANSDERMAL THERAPEUTIC SYSTEM FOR THE TRANSDERMAL ADMINISTRATION OF TIZANIDINE” (LTS LOHMANN THERAPIE-SYSTEME AG, priority 2021, published 2024).
# Structures can show the parent of a compound that is named as a salt.
# Conditions: background statement, no test described
row,permeation through the skin,SMILES
1,slightly permeates through the skin,"Clc1ccc2nsnc2c1NC1=NCCN1 [tizanidine in the form of its free base, 5-chloro-4-(2-imidazolin-2-ylamino)-2,1,3-benzothiadiazole]"
2,does not permeate through the skin,Clc1ccc2nsnc2c1NC1=NCCN1 [tizanidine in the form of its hydrochloride]
